Results on two compounds are retold here after article PMC11576293, “New series of 4,6-diaryl pyrimidines: facile synthesis and antiproliferative activity as dual EGFR/VEGFR-2 inhibitors” (Frontiers in Chemistry, 2024).

System in the first series: not given
Assay: not given
Conditions: not given
Take `COc1ccc(-c2cc(-c3ccc(Cl)cc3)nc(SCc3ccccc3)n2)cc1OC` [Compound 28, 2-(Benzylthio)-4-(4-chlorophenyl)-6-(3,4-dimethoxyphenyl)pyrimidine]: the melting point was in the range of 239 to 241 °C.
Consider `COc1ccc(CSc2nc(-c3ccc(Cl)cc3)cc(-c3ccc(OC)c(OC)c3)n2)cc1` [Compound 29, 2-(4-Methoxybenzylthio)-4-(4-chlorophenyl)-6-(3,4-dimethoxyphenyl)pyrimidine], for which the melting point is 279 to 281 °C.

The subject of another series is HT-29. Description: Antiproliferative assay (MTT). It is filed as cell-based. As to conditions: Homo sapiens, HT-29 (colon), read-out: Antiproliferative activity IC50 ± SEM, HT-29. In outline:
(§1)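 MTT assay on tumour cell lines, compound in 0.1% DMSO final, 96 h at 37 °C. MTT at 0.4 mg/mL for 3 h, then DMSO solubilisation and absorbance at 540 nm. IC50 from dose-response, at least two independent runs in triplicate.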
With `COc1ccc(-c2cc(-c3ccc(Cl)cc3)nc(SCc3ccccc3)n2)cc1OC` [Compound 28, 2-(Benzylthio)-4-(4-chlorophenyl)-6-(3,4-dimethoxyphenyl)pyrimidine], the 50% inhibitory concentration (IC50) is 0.041 ± 0.003 µM.
`COc1ccc(CSc2nc(-c3ccc(Cl)cc3)cc(-c3ccc(OC)c(OC)c3)n2)cc1` [Compound 29, 2-(4-Methoxybenzylthio)-4-(4-chlorophenyl)-6-(3,4-dimethoxyphenyl)pyrimidine]: the IC50 was 0.024 ± 0.002 µM.

Another series has as its system MCF-7. Kind of series: Antiproliferative assay (MTT). The class given is cell-based. Conditions: Homo sapiens, MCF7, MCF-7 (breast), read-out: Antiproliferative activity IC50 ± SEM, MCF-7. In outline: as §1
`COc1ccc(-c2cc(-c3ccc(Cl)cc3)nc(SCc3ccccc3)n2)cc1OC` [Compound 28, 2-(Benzylthio)-4-(4-chlorophenyl)-6-(3,4-dimethoxyphenyl)pyrimidine]: the IC50 is 0.043 ± 0.003 µM.
Take `COc1ccc(CSc2nc(-c3ccc(Cl)cc3)cc(-c3ccc(OC)c(OC)c3)n2)cc1` [Compound 29, 2-(4-Methoxybenzylthio)-4-(4-chlorophenyl)-6-(3,4-dimethoxyphenyl)pyrimidine]: the IC50 worked out at 0.025 ± 0.002 µM.

For a further series, the system named is Panc-1. Kind of series: Antiproliferative assay (MTT). The class given is cell-based. Conditions: Homo sapiens, Panc-1 (pancreatic), read-out: Antiproliferative activity IC50 ± SEM, Panc-1. In outline:
as §1
Turning to `COc1ccc(-c2cc(-c3ccc(Cl)cc3)nc(SCc3ccccc3)n2)cc1OC` [Compound 28, 2-(Benzylthio)-4-(4-chlorophenyl)-6-(3,4-dimethoxyphenyl)pyrimidine], the IC50 was 0.04 ± 0.003 µM.
With `COc1ccc(CSc2nc(-c3ccc(Cl)cc3)cc(-c3ccc(OC)c(OC)c3)n2)cc1` [Compound 29, 2-(4-Methoxybenzylthio)-4-(4-chlorophenyl)-6-(3,4-dimethoxyphenyl)pyrimidine], the 50% inhibitory concentration (IC50) turned out to be 0.023 ± 0.002 µM.

Another series concerns A-549. Description: Antiproliferative assay (MTT). It is filed as cell-based. As to conditions: Homo sapiens, A549, A-549 (lung), read-out: Antiproliferative activity IC50 ± SEM, A-549. The gist of the method:
as §1
Regarding `COc1ccc(-c2cc(-c3ccc(Cl)cc3)nc(SCc3ccccc3)n2)cc1OC` [Compound 28, 2-(Benzylthio)-4-(4-chlorophenyl)-6-(3,4-dimethoxyphenyl)pyrimidine], the concentration for half-maximal inhibition (IC50) came out at 0.039 ± 0.003 µM.
Take `COc1ccc(CSc2nc(-c3ccc(Cl)cc3)cc(-c3ccc(OC)c(OC)c3)n2)cc1` [Compound 29, 2-(4-Methoxybenzylthio)-4-(4-chlorophenyl)-6-(3,4-dimethoxyphenyl)pyrimidine]: the IC50 is 0.023 ± 0.002 µM.

System in the next series: not listed separately
Description: Cell viability assay (MTT) on normal cells. As to conditions: human, MCF-10A normal mammary gland epithelial cells, 4 days incubation. It is filed as cell-based.
The compound `COc1ccc(-c2cc(-c3ccc(Cl)cc3)nc(SCc3ccccc3)n2)cc1OC` [Compound 28, 2-(Benzylthio)-4-(4-chlorophenyl)-6-(3,4-dimethoxyphenyl)pyrimidine] yielded a viability at 4 days, 50 µM of 92%.
`COc1ccc(CSc2nc(-c3ccc(Cl)cc3)cc(-c3ccc(OC)c(OC)c3)n2)cc1` [Compound 29, 2-(4-Methoxybenzylthio)-4-(4-chlorophenyl)-6-(3,4-dimethoxyphenyl)pyrimidine] had a viability at 4 days, 50 µM of 91%.

The subject of another series is MDA-MB-435. Description: NCI-60 single-dose screen. As to conditions: Homo sapiens, single dose 10 µM, '-' = no inhibition, read-out: % Growth Inhibition. It is filed as cell-based. As to the method:
(§2) The National Cancer Institute’s Developmental Therapeutic Program (www.dtp.nci.nih.gov) has tested compounds 9–29 (except compounds 21 and 22) against 60 cancer cell lines from nine types (leukemia, lung, colon, CNS, melanoma, ovarian, renal, prostate, and breast cancer) at a single dose (10 μM) ([El-Sherief et al., 2018]). […] The most sensitive cells included leukemia (SR, K-562, and MOLT-4), lung (NCI-H522, […], and EKVX), breast (MCF-7 and T-47D), colon (HCT-15 and HT-29), and ovarian (NCI/ADR-RES).
(§3) The National Cancer Institute’s Developmental Therapeutic Program (www.dtp.nci.nih.gov) evaluated compounds 9–29 (excluding 21 and 22) against 60 cancer cell lines from nine categories (leukemia, lung, colon, CNS, melanoma, ovarian, renal, prostate, and breast cancer) at a single dose (10 μM) ([El-Sherief et al., 2018]). See Supplementary Material A1 for more details.
In the case of `COc1ccc(-c2cc(-c3ccc(Cl)cc3)nc(SCc3ccccc3)n2)cc1OC` [Compound 28, 2-(Benzylthio)-4-(4-chlorophenyl)-6-(3,4-dimethoxyphenyl)pyrimidine], the inhibition at 10 µM was found to be 15.2%.
On to `COc1ccc(CSc2nc(-c3ccc(Cl)cc3)cc(-c3ccc(OC)c(OC)c3)n2)cc1` [Compound 29, 2-(4-Methoxybenzylthio)-4-(4-chlorophenyl)-6-(3,4-dimethoxyphenyl)pyrimidine], for which the inhibition at 10 µM is 22.8%.

In the next series the test system is HCT-116. Description: NCI-60 single-dose screen. The class given is cell-based. Conditions: Homo sapiens, single dose 10 µM, '-' = no inhibition, read-out: % Growth Inhibition. As to the method:
as §2, §3
For `COc1ccc(-c2cc(-c3ccc(Cl)cc3)nc(SCc3ccccc3)n2)cc1OC` [Compound 28, 2-(Benzylthio)-4-(4-chlorophenyl)-6-(3,4-dimethoxyphenyl)pyrimidine], the inhibition at 10 µM stood at 25.9%.
On the same count and under the same terms, with `COc1ccc(CSc2nc(-c3ccc(Cl)cc3)cc(-c3ccc(OC)c(OC)c3)n2)cc1` [Compound 29, 2-(4-Methoxybenzylthio)-4-(4-chlorophenyl)-6-(3,4-dimethoxyphenyl)pyrimidine] the figure was 30.2%.

A further series has as its system SW-620. Kind of series: NCI-60 single-dose screen. The class given is cell-based. Conditions: Homo sapiens, single dose 10 µM, '-' = no inhibition, read-out: % Growth Inhibition. As to the method:
as §2, §3
For the compound `COc1ccc(-c2cc(-c3ccc(Cl)cc3)nc(SCc3ccccc3)n2)cc1OC` [Compound 28, 2-(Benzylthio)-4-(4-chlorophenyl)-6-(3,4-dimethoxyphenyl)pyrimidine], the inhibition at 10 µM was determined as 2.79%.
The same measure, in the same setting: with `COc1ccc(CSc2nc(-c3ccc(Cl)cc3)cc(-c3ccc(OC)c(OC)c3)n2)cc1` [Compound 29, 2-(4-Methoxybenzylthio)-4-(4-chlorophenyl)-6-(3,4-dimethoxyphenyl)pyrimidine] the figure was 12.7%.

The subject of a further series is OVCAR-3. Kind of series: NCI-60 single-dose screen. As to conditions: Homo sapiens, single dose 10 µM, '-' = no inhibition, read-out: % Growth Inhibition. The class given is cell-based. The method, then: as §2, §3
On to `COc1ccc(-c2cc(-c3ccc(Cl)cc3)nc(SCc3ccccc3)n2)cc1OC` [Compound 28, 2-(Benzylthio)-4-(4-chlorophenyl)-6-(3,4-dimethoxyphenyl)pyrimidine], for which the inhibition at 10 µM was under 0%.
On the same count and under the same terms, with `COc1ccc(CSc2nc(-c3ccc(Cl)cc3)cc(-c3ccc(OC)c(OC)c3)n2)cc1` [Compound 29, 2-(4-Methoxybenzylthio)-4-(4-chlorophenyl)-6-(3,4-dimethoxyphenyl)pyrimidine] the figure was under 0%.

A further series deals with HOP-92. Kind of series: NCI-60 single-dose screen. As to conditions: Homo sapiens, single dose 10 µM, '-' = no inhibition, read-out: % Growth Inhibition. The class given is cell-based. As to the method:
as §2, §3
For `COc1ccc(-c2cc(-c3ccc(Cl)cc3)nc(SCc3ccccc3)n2)cc1OC` [Compound 28, 2-(Benzylthio)-4-(4-chlorophenyl)-6-(3,4-dimethoxyphenyl)pyrimidine], the inhibition at 10 µM is 0.63%.
For `COc1ccc(CSc2nc(-c3ccc(Cl)cc3)cc(-c3ccc(OC)c(OC)c3)n2)cc1` [Compound 29, 2-(4-Methoxybenzylthio)-4-(4-chlorophenyl)-6-(3,4-dimethoxyphenyl)pyrimidine], the inhibition at 10 µM was 20.6%.

The next series deals with SN12C. Description: NCI-60 single-dose screen. The class given is cell-based. Conditions: Homo sapiens, single dose 10 µM, '-' = no inhibition, read-out: % Growth Inhibition. The method, then: as §2, §3
`COc1ccc(-c2cc(-c3ccc(Cl)cc3)nc(SCc3ccccc3)n2)cc1OC` [Compound 28, 2-(Benzylthio)-4-(4-chlorophenyl)-6-(3,4-dimethoxyphenyl)pyrimidine]: the inhibition at 10 µM was found to be 23.1%.
As for `COc1ccc(CSc2nc(-c3ccc(Cl)cc3)cc(-c3ccc(OC)c(OC)c3)n2)cc1` [Compound 29, 2-(4-Methoxybenzylthio)-4-(4-chlorophenyl)-6-(3,4-dimethoxyphenyl)pyrimidine], the inhibition at 10 µM came out at 35.6%.

The next series deals with DU-145. Kind of series: NCI-60 single-dose screen. The class given is cell-based. Conditions: Homo sapiens, single dose 10 µM, '-' = no inhibition, read-out: % Growth Inhibition. The method, then:
as §2, §3
With `COc1ccc(-c2cc(-c3ccc(Cl)cc3)nc(SCc3ccccc3)n2)cc1OC` [Compound 28, 2-(Benzylthio)-4-(4-chlorophenyl)-6-(3,4-dimethoxyphenyl)pyrimidine], the inhibition at 10 µM turned out to be 8.2%.
As to `COc1ccc(CSc2nc(-c3ccc(Cl)cc3)cc(-c3ccc(OC)c(OC)c3)n2)cc1` [Compound 29, 2-(4-Methoxybenzylthio)-4-(4-chlorophenyl)-6-(3,4-dimethoxyphenyl)pyrimidine], the inhibition at 10 µM came to 28.6%.

A further series has as its system HS 578T. Description: NCI-60 single-dose screen. It is filed as cell-based. As to conditions: Homo sapiens, single dose 10 µM, '-' = no inhibition, read-out: % Growth Inhibition. The method, then:
as §2, §3
On to `COc1ccc(-c2cc(-c3ccc(Cl)cc3)nc(SCc3ccccc3)n2)cc1OC` [Compound 28, 2-(Benzylthio)-4-(4-chlorophenyl)-6-(3,4-dimethoxyphenyl)pyrimidine], for which the inhibition at 10 µM was 18.2%.
`COc1ccc(CSc2nc(-c3ccc(Cl)cc3)cc(-c3ccc(OC)c(OC)c3)n2)cc1` [Compound 29, 2-(4-Methoxybenzylthio)-4-(4-chlorophenyl)-6-(3,4-dimethoxyphenyl)pyrimidine]: the inhibition at 10 µM was found to be 37.5%.

The test system of a further series is CAKI-1. Description: NCI-60 single-dose screen. The class given is cell-based. As to conditions: Homo sapiens, single dose 10 µM, '-' = no inhibition, read-out: % Growth Inhibition. The method, then: as §2, §3
As for `COc1ccc(-c2cc(-c3ccc(Cl)cc3)nc(SCc3ccccc3)n2)cc1OC` [Compound 28, 2-(Benzylthio)-4-(4-chlorophenyl)-6-(3,4-dimethoxyphenyl)pyrimidine], the inhibition at 10 µM was determined as 25.7%.
As for `COc1ccc(CSc2nc(-c3ccc(Cl)cc3)cc(-c3ccc(OC)c(OC)c3)n2)cc1` [Compound 29, 2-(4-Methoxybenzylthio)-4-(4-chlorophenyl)-6-(3,4-dimethoxyphenyl)pyrimidine], the inhibition at 10 µM was 23.1%.

A further series has as its system SF-295. Description: NCI-60 single-dose screen. As to conditions: Homo sapiens, single dose 10 µM, '-' = no inhibition, read-out: % Growth Inhibition. The class given is cell-based. As to the method:
as §2, §3
Regarding `COc1ccc(-c2cc(-c3ccc(Cl)cc3)nc(SCc3ccccc3)n2)cc1OC` [Compound 28, 2-(Benzylthio)-4-(4-chlorophenyl)-6-(3,4-dimethoxyphenyl)pyrimidine], the inhibition at 10 µM stood at 7.84%.
On the same count and under the same terms, with `COc1ccc(CSc2nc(-c3ccc(Cl)cc3)cc(-c3ccc(OC)c(OC)c3)n2)cc1` [Compound 29, 2-(4-Methoxybenzylthio)-4-(4-chlorophenyl)-6-(3,4-dimethoxyphenyl)pyrimidine] the figure was 16.7%.
